# Columns and labels:
# [1] = molecular target: CYP2C9 (Homo sapiens, UniProt P11712); assay: Inhibition of CYP2C9-catalyzed tolbutamide 4-hydroxylation in human liver microsomes; type: in vitro ADME; parameters: incubation mixtures containing pooled human liver microsomes (HLMs, XTreme 200, XenoTech); tissue XenoTech XTreme 200; host or cells: pooled human liver microsomes; settings: HLMs
# From the text: We used HLMs to determine the mechanisms and constants (Ki values) for […] A inhibition of CYP1A2, CYP2B6, CYP2C8, CYP2C9 and CYP3A. […] The substrates were used at concentrations approximately near to their respective Km values. […] The other conditions were the same as in the cytochrome P450 inhibition study. […] Phenomenex, Torrance, CA, USA) and analyzed using a Shimadzu LCMS 8060 triple-quadrupole mass spectrometer coupled with a Nexera X2 ultra high-performance liquid chromatography system (Shimadzu, Kyoto, Japan) equipped with an electrospray ionization interface. The mobile phase consisted of 0.1% formic acid in water (A) and 0.1% formic acid in acetonitrile (B). […] The flow rate was 0.2 mL/min. Electrospray ionization was performed in positive-ion mode at 4000 V or in negative-ion mode at -3500 V. The optimum operating conditions were determined as follows: vaporizer temperature, 300 °C; capillary temperature, 350 °C; collision gas (argon) pressure, 1.5 mTorr. Quantitation was conducted in selected reaction monitoring (SRM) modes with the precursor-to-product ion transition for each metabolite (Table 1 and Table 2). We analyzed the data with Shimadzu LabSolution LC-MS software. The IC50 values were calculated by WinNonlin software (Pharsight, Mountain View, CA, USA). […]
# [2] = molecular target: T1, CYP2C8 (Homo sapiens, UniProt P10632); settings: read-out: IC50, CYP2C8, known inhibitor; cited from earlier work
# T1 sequence (P10632 1-490): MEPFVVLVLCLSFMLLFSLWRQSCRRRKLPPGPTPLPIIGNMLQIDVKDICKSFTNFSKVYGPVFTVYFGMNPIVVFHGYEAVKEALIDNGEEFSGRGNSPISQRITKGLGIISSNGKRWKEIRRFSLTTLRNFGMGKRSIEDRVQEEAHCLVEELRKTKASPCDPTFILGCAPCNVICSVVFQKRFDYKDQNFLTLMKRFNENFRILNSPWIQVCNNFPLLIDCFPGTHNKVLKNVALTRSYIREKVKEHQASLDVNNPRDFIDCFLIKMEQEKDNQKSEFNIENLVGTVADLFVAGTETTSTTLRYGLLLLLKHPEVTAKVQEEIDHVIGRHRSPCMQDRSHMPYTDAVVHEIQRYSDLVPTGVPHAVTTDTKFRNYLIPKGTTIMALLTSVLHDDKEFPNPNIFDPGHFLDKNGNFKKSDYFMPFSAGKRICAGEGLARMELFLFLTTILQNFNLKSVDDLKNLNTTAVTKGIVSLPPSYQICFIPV
# CYP2C9, sequence (P11712 whole entry): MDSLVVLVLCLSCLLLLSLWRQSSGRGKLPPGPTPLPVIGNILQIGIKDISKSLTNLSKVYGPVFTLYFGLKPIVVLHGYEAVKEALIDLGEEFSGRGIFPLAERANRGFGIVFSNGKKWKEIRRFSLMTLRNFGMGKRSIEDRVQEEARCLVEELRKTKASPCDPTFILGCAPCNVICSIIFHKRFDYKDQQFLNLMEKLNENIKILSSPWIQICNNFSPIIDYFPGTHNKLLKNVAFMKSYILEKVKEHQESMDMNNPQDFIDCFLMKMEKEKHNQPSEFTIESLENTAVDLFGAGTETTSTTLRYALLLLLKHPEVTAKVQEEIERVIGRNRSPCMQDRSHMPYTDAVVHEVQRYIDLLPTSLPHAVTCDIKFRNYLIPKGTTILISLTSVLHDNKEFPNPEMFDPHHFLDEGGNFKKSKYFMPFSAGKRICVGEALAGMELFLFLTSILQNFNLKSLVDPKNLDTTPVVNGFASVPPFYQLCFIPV
"Mode of Inhibition, CYP2C9 tolbutamide [1]","Ki ([1]; average ± standard error, triplicate) [nM]",Structure (SMILES),IC50 [2] [nM]
Noncompetitive,65 ± 10,O=C1CC(c2cc(-c3c(O)ccc4c(=O)cc(-c5ccc(O)cc5)oc34)c(O)cc2O)Oc2cc(O)cc(O)c21 (stereo not drawn) [selamariscina A],
,,"CC(C)(O)c1ccccc1CC[C@@H](SCC1(CC(=O)O)CC1)c1cccc(/C=C/c2ccc3ccc(Cl)cc3n2)c1 [montelukast, reference compound]",20
